Results: patent US20240018480A1, “ENHANCEMENT OF EXTRACELLULAR VESICLE PRODUCTION BY LYSOSOME INHIBITOR” (ExoTop Theragnostics Inc., priority 2022, published 2024)
“Also recorded” adds a separate entry of the source.

Key:
human CD63 (hCD63) gene = assay: RT-qPCR of hCD63 gene expression in MSCs cultured in different media; type: cell-based; conditions: FIG. 2B
Protocol: (§1) Mesenchymal stem cells were seeded on the plate at a density of ˜5000 cells/cm^2 and the plate was placed in 5% CO2 humidified incubator. One day after the incubation, the culture media was aspirated to remove non-adherent cells and switched with a fresh media. The plate was incubated again. After further culturing for around 3 to 5 days, the culture media was aspirated and replaced by CDPF and/or lysosome inhibitor medium. The cells were cultured in the CDPF and/or lysosome inhibitor medium for 12, 24, or 48 hours. After the designated period of culturing, the culture media was collected and cell lysis buffer was immediately added to the cells on the plate. The collected media and cell lysate were each independently subjected to detection of the level of CD63 by ELISA and by qPCR, respectively.
To compare hCD63+ expression in MSCs cultured in various media including CCM, CDPF, and CDPF with lysosome inhibitor, RT-quantitative real-time PCR (RT-qPCR) assays were performed.

human MSCs [1] = assay: CD63 ELISA of culture media collected after culture with stem cells (secretion of EVs); type: cell-based; conditions: FIG. 3A
Protocol: as §1, with “5000” for “˜5000”
To quantitatively compare CD63+ expression in CM cultured in various media including CCM, CDPF, and CDPF with lysosome inhibitor, enzyme-linked immunosorbent (ELISA) assays were performed.

[2] = system: fatty acid synthase (FASN); assay: qPCR relative quantification (RQ) of fatty acid synthase (FASN) in MSCs; type: cell-based, human; conditions: FIG. 3C
human MSCs [3] = assay: Intracellular acidification of MSCs, acidic organelles stained by lysotracker red; type: cell-based; conditions: MSCs in CDPF with lysosome inhibitor vs CCM and CDPF, FIG. 2A
Protocol: as §1
Human MSCs were cultured in different media including complete culture medium (CCM), CDPF, and CDPF with lysosome inhibitor. The acidic organelles in live stem cells were stained by lysotracker red. […] Without lysosome inhibitor, the intracellular acidification was not suppressed.

[4] = MSCs in CDPF with lysosome inhibitor, RT-qPCR

CCN(CC)CCCC(C)Nc1ccnc2cc(Cl)ccc12 (stereo not drawn) [lysosome inhibitor, chloroquine]
expression of human CD63 gene in the MSCs (in words) (human CD63 (hCD63) gene; CDPF with lysosome inhibitor vs CCM, CDPF, qPCR): increased; also recorded: dramatic increase
expression of hCD63+ gene, times higher than MSCs cultured in CCM (human CD63 (hCD63) gene; [4]): about 10 times
expression of hCD63+ gene, times higher than MSCs cultured in CDPF without lysosome inhibitor (human CD63 (hCD63) gene; [4]): about 5 times
secretion of EVs (CD63-positive particles) from stem cells to the cultured media (in words) (human MSCs [1]; Ly_Inhibitor+CDPF vs CCM and CDPF, CD63 ELISA): stimulated
EV production (CD63+ particles), times higher than MSCs cultured in CCM or in CDPF without lysosome inhibitor (human MSCs [1]; MSCs in CDPF with lysosome inhibitor, CD63 ELISA of media): about 2.3 times
expression of FASN, times higher than MSCs cultured in CCM ([2]; MSCs in CCM with lysosome inhibitor, RT-qPCR): about 25 times
expression of FASN, times higher than MSCs cultured in CDPF without lysosome inhibitor [2, 4]: about 5 times
gene expression of FASN (in words) ([2]; treatment with the inhibitor, qPCR RQ): drastically induced
intracellular acidification of human MSCs (human MSCs [3]): suppressed
